In ChEMBL document CHEMBL3864160, “Discovery of fluorobenzimidazole HCV NS5A inhibitors” (Bioorg Med Chem Lett, 2016):

Columns and labels:
[1] = Oral bioavailability in CD1 mouse at 5 mg/kg after 0.25 to 24 hrs; type: ADME, organism-based; conditions: in vivo
[2] = Oral bioavailability in Sprague-Dawley rat at 3 mg/kg administered via gavage after 0.25 to 24 hrs; type: ADME, organism-based; conditions: in vivo
[3] = tested on: Hepatitis C virus (isolate H77); assay: Ratio of EC50 for Hepatitis C virus genotype 1a H77 replicon NS5A in presence of 40% human plasma to EC50 for Hepatitis C virus genotype 1a H77 replicon NS5A in absence of 40% human plasma
[4] = AUC in CD1 mouse at 5 mg/kg, po after 0.25 to 24 hrs; type: ADME, organism-based; parameters: time 0.25-24 hr, dose 5 mg/kg, route oral; conditions: in vivo
[5] = Half life in CD1 mouse at 5 mg/kg, po after 0.25 to 24 hrs; type: ADME, organism-based; conditions: in vivo
[6] = Inhibition of Hepatitis C virus genotype 1b Con1 replicon NS5A transfected in human HuH7 cells assessed as decrease in replication of viral replicon in presence of 40% human plasma after 4 days by luciferase reporter gene assay; type: cell-based, Hepatitis C virus (isolate Con1); conditions: Huh-7, Plasma, 96 h
[7] = Inhibition of Hepatitis C virus genotype 1a H77 replicon NS5A transfected in human HuH7 cells assessed as decrease in replication of viral replicon in presence of 40% human plasma after 4 days by luciferase reporter gene assay; type: cell-based, Hepatitis C virus (isolate H77); conditions: Huh-7, Plasma, 96 h
[8] = Inhibition of Hepatitis C virus genotype 4a replicon NS5A transfected in human HuH7 cells assessed as decrease in replication of viral replicon after 4 days by luciferase reporter gene assay; type: cell-based, Hepatitis C virus subtype 4a; conditions: Huh-7, 96 h
[9] = Inhibition of Hepatitis C virus genotype 2b replicon NS5A transfected in human HuH7 cells assessed as decrease in replication of viral replicon after 4 days by luciferase reporter gene assay; type: cell-based, Hepatitis C virus subtype 2b; conditions: Huh-7, 96 h
[10] = Inhibition of Hepatitis C virus genotype 1a H77 replicon NS5A Q30R mutant transfected in human HuH7 cells assessed as decrease in replication of viral replicon after 4 days by luciferase reporter gene assay; type: cell-based, Hepatitis C virus (isolate H77); conditions: Huh-7, 96 h
[11] = Plasma clearance in CD1 mouse at 5 mg/kg, iv after 0.1 to 24 hrs; type: ADME, organism-based
[12] = tested on: Hepatitis C virus (isolate H77); assay: Resistance ratio of EC50 for Hepatitis C virus genotype 1a H77 replicon NS5A Q30R mutant to EC50 for Hepatitis C virus genotype 1a H77 replicon NS5A
[13] = tested on: Hepatitis C virus (isolate H77); assay: Resistance ratio of EC50 for Hepatitis C virus genotype 1a H77 replicon NS5A Y93H mutant to EC50 for Hepatitis C virus genotype 1a H77 replicon NS5A
[14] = Cmax in CD1 mouse at 5 mg/kg, po after 0.25 to 24 hrs; type: ADME, organism-based; parameters: dose 5 mg/kg, route oral; conditions: in vivo
[15] = AUC in Sprague-Dawley rat at 3 mg/kg, po administered via gavage after 0.25 to 24 hrs; type: ADME, organism-based; parameters: time upper 24 hr, dose 3 mg/kg, time lower 0.25 hr, route oral; conditions: in vivo
[16] = Cmax in Sprague-Dawley rat at 3 mg/kg, po administered via gavage after 0.25 to 24 hrs; type: ADME, organism-based; parameters: dose 3 mg/kg, route oral; conditions: in vivo
[17] = Inhibition of Hepatitis C virus genotype 1a H77 replicon NS5A M28T mutant transfected in human HuH7 cells assessed as decrease in replication of viral replicon after 4 days by luciferase reporter gene assay; type: cell-based, Hepatitis C virus (isolate H77); conditions: Huh-7, 96 h
[18] = tested on: Hepatitis C virus (isolate H77); assay: Resistance ratio of EC50 for Hepatitis C virus genotype 1a H77 replicon NS5A M28T mutant to EC50 for Hepatitis C virus genotype 1a H77 replicon NS5A
[19] = Inhibition of Hepatitis C virus genotype 2a replicon NS5A transfected in human HuH7 cells assessed as decrease in replication of viral replicon after 4 days by luciferase reporter gene assay; type: cell-based, Hepatitis C virus subtype 2a; conditions: Huh-7, 96 h
[20] = Inhibition of Hepatitis C virus genotype 1b Con1 replicon NS5A transfected in human HuH7 cells assessed as decrease in replication of viral replicon after 4 days by luciferase reporter gene assay; type: cell-based, Hepatitis C virus (isolate Con1); conditions: Huh-7, 96 h
[21] = Inhibition of Hepatitis C virus genotype 1a H77 replicon NS5A transfected in human HuH7 cells assessed as decrease in replication of viral replicon after 4 days by luciferase reporter gene assay; type: cell-based, Hepatitis C virus (isolate H77); conditions: Huh-7, 96 h
[22] = tested on: Hepatitis C virus (isolate H77); assay: Resistance ratio of EC50 for Hepatitis C virus genotype 1a H77 replicon NS5A Y93C mutant to EC50 for Hepatitis C virus genotype 1a H77 replicon NS5A
[23] = Half life in CD1 mouse at 5 mg/kg, iv after 0.1 to 24 hrs; type: ADME, organism-based; conditions: in vivo
[24] = Plasma clearance in Sprague-Dawley rat at 3 mg/kg, iv administered as bolus dose after 0.1 to 24 hrs; type: ADME, organism-based
[25] = Inhibition of Hepatitis C virus genotype 3a replicon NS5A transfected in human HuH7 cells assessed as decrease in replication of viral replicon after 4 days by luciferase reporter gene assay; type: cell-based, Hepatitis C virus subtype 3a; conditions: Huh-7, 96 h
[26] = Half life in Sprague-Dawley rat at 3 mg/kg, iv administered as bolus dose after 0.1 to 24 hrs; type: ADME, organism-based; conditions: in vivo

SMILES: COC(=O)N[C@H](C(=O)N1CCC[C@H]1c1nc2ccc([C@H]3CC[C@H](c4ccc5nc([C@@H]6CCCN6C(=O)[C@@H](NC(=O)OC)C(C)C)[nH]c5c4)N3c3ccc(C(C)(C)C)cc3)cc2[nH]1)C(C)C
- bioavailability [1]: 11%
- bioavailability [2]: 20%
- Ratio EC50 [3]: 10 to 20
- AUC [4]: 1390 ng·h/mL
- half-life [5]: 2.6 h
- EC50 [6]: 0.272 nM
- EC50 [7]: 0.155 nM
- EC50 [8]: 0.006 nM
- EC50 [9]: 0.01 nM
- EC50 [10]: 0.027 nM
- clearance [11]: 6.33 mL/min/kg
- Ratio EC50 [12]: 14
- Ratio EC50 [13]: 239
- Cmax [14]: 270 ng/mL
- AUC [15]: 560 ng·h/mL
- Cmax [16]: 60 ng/mL
- EC50 [17]: 0.008 nM
- Ratio EC50 [18]: 4
- EC50 [19]: 0.155 nM
- EC50 [20]: 0.014 nM
- EC50 [21]: 0.002 to 0.011 nM
- Ratio EC50 [22]: 8
- half-life [23]: 2 h
- clearance [24]: 17.7 mL/min/kg
- EC50 [25]: 0.014 nM
- half-life [26]: 4.1 h
